Assay results: patent publication US11759462B2, “Spirocyclic compounds as tryptophan hydroxylase inhibitors” (priority 2013, dated 2023)

Assays:
[1] = tested on: TPH; conditions: background statement; cited from earlier work
[2] = tested on: central 5-HT production / CNS functions; conditions: cited from earlier work
[3] = carcinoid tumor patients; cited from earlier work
[4] = biological target: T1, Recombinant human TPH1 (MBP tagged) (Homo sapiens, UniProt P17752); assay: TPH1 in vitro inhibition assay (kinetic fluorescence); format: biochemical; conditions: read-out: TPH1 Range (TPH1 inhibition IC50)
T1 construct: cloning full length human TPH1 cDNA in to a bacterial pMAL-c5E expression vector; made in house; host or cells: E. coli BL21 (DE3)
T1 sequence (P17752 1-444): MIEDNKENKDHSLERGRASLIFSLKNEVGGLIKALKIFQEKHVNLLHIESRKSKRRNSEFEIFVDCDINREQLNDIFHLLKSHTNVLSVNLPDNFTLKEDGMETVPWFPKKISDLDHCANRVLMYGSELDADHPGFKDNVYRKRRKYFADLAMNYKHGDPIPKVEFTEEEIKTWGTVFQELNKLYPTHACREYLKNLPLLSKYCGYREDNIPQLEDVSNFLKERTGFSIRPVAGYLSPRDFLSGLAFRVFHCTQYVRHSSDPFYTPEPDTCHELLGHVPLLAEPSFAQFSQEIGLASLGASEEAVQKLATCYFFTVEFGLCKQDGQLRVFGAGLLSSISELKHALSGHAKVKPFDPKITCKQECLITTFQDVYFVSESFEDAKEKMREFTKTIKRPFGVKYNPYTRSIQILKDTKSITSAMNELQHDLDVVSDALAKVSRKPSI
Method in brief: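 Final mix: 15 nM MBP-TPH1, 30 μM Trp, 36 μM 6-methyltetrahydropterin, 25 μM ferrous ammonium sulfate, 50 mM MES pH 7.1, 1% DMSO, room temperature.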

[5] = tested on: jejunal mucosal 5-HT in mice (C57 BL6); assay: Intestinal 5-HT depletion assay (Example B, single 150 mg/kg oral dose); format: in vivo, mouse; conditions: one day after oral administration of a single 150 mg/kg dose, P-value class (ANOVA)
Method in brief: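 C57 BL6 mice received one 150 mg/kg oral gavage dose; jejunal mucosa was homogenized in acidic trichloroacetic acid buffer and 5-HT measured by HPLC. Levels normalized to BCA protein, expressed as mean percent reduction versus vehicle ± SEM; ANOVA significance.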

[6] = tested on: jejunal mucosal 5-HT in mice (C57 BL6); assay: Reduction of mucosal 5-HT concentrations (Example C, repeated oral dosing); format: in vivo, mouse; conditions: after three oral doses (first 10 or 50 mg/kg, then two doses of 50 mg/kg) (title), P-value class

Compound | TPH inhibition (in words) [1] | CNS side effects ([2]; patients and animals) | efficacy against chemotherapy-induced emesis and diarrhea [3] | IC50 [4] | Efficacy (statistical significance of reduction of mucosal 5-HT concentrations relative to vehicle) [5] | Efficacy (statistical significance of reduction of mucosal 5-HT concentrations relative to vehicle) [6] | effect on central 5-HT production ([2]; in vivo)
N[C@@H](Cc1ccc(Cl)cc1)C(=O)O (racemic) [pCPA, p-chlorophenylalanine] | very weak and unselective irreversible inhibitor of TPH | linked to the onset of depression and other alterations of CNS functions | proven effective in treating chemotherapy-induced emesis, as well as diarrhea | – | – | – | –
Nc1nc(O[C@H](c2ccc(-c3ccc4ncccc4c3)cc2)C(F)(F)F)cc(N2CCC3(CC2)CN[C@H](C(=O)O)C3)n1 [Example 55bg, (S)-8-(2-amino-6-((R)-2,2,2-trifluoro-1-(4-(quinolin-6-yl)phenyl)ethoxy)pyrimidin-4-yl)-2,8-diazaspiro[4.5]decane-3-carboxylic acid] | – | – | – | < 50 nM | *** (*** refers to P<0.005) | *** (*** refers to P<0.005) | –
C#Cc1ccc(C[C@H](N)C(=O)O)cc1 [p-Ethynyl phenylalanine] | more selective and more potent TPH inhibitor than pCPA | – | – | – | – | – | affects central 5-HT production
